In US8455665B2, “3-phenoxymethylpyrrolidine compounds” (Theravance, Inc., priority 2009, dated 2013):
Where two headings read alike, the source gives them in different places. Marks after values point to notes of the source that are not given here.

Tests used:
NET = NET (Homo sapiens, UniProt P23975); assay: fluorescence-based norepinephrine uptake assay (Tsuruda et al. 2010); format: cell-based
SERT = SERT (Homo sapiens, UniProt P31645); assay: fluorescence-based serotonin uptake assay (Tsuruda et al. 2010); format: cell-based
[1] = norepinephrine reuptake inhibition, fluorescence-based assay (data indicated by an asterisk), read-out: NET pIC50 (converted)
[2] = serotonin reuptake inhibition, fluorescence-based assay (data indicated by an asterisk), read-out: SERT pIC50 (converted)
[3] = norepinephrine reuptake inhibition, fluorescence-based assay (data indicated by an asterisk)
[4] = serotonin reuptake inhibition, fluorescence-based assay (data indicated by an asterisk)

NET, sequence (P23975 whole entry): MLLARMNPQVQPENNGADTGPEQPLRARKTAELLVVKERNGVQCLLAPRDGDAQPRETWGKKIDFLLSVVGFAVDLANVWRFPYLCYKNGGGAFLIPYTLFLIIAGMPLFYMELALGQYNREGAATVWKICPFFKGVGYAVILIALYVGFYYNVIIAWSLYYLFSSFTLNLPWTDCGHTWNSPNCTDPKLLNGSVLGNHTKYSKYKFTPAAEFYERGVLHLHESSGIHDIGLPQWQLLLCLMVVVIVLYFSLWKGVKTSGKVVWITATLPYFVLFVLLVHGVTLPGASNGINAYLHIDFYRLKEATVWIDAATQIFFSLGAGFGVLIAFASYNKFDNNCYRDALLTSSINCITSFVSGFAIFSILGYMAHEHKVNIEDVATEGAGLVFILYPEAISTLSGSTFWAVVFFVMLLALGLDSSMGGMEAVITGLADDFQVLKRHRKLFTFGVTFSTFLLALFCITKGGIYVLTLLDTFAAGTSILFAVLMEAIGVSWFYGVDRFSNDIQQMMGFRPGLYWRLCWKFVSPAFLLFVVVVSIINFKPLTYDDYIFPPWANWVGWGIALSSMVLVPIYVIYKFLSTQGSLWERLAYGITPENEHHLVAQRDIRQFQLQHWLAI
SERT, sequence (P31645 whole entry, species assumed): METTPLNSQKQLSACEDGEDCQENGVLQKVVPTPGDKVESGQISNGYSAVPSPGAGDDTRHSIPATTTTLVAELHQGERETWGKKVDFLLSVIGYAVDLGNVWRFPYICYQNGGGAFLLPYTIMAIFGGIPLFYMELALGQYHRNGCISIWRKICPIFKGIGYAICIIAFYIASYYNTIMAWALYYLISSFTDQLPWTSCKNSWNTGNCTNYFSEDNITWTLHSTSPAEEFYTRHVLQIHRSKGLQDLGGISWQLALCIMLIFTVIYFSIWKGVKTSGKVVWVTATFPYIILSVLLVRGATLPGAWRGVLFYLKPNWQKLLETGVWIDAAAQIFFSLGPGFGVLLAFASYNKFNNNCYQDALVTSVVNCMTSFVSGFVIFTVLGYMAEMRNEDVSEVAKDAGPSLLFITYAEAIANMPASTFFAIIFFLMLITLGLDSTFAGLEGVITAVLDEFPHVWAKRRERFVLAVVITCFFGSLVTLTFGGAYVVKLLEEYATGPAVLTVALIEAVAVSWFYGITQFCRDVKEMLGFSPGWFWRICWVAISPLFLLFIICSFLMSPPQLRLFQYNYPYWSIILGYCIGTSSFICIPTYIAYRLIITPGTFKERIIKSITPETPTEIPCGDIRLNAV

| SMILES | IC50 (NET; [1]) [nM] | IC50 (SERT; [2]) [nM] | NET pIC50 (NET; [3]) | SERT pIC50 (SERT; [4]) | also measured |
| --- | --- | --- | --- | --- | --- |
| CC(C)SC[C@@H](Oc1cccc(Cl)c1C(F)(F)F)[C@H]1CCNC1 [Example 19-6, (S)-3-[(S)-1-(3-Chloro-2-trifluoromethylphenoxy)-2-isopropylsulfanylethyl]pyrrolidine] | ≤ 10 | ≤ 10 |  |  |  |
| CC(C)OC[C@H](Oc1ccc(Cl)cc1Cl)[C@H]1CCNC1 [Example 8, (S)-3-[(R)-1-(2,4-Dichlorophenoxy)-2-isopropoxyethyl]pyrrolidine] | ≤ 10 | ≤ 10 |  |  |  |
| CC(C)OC[C@H](Oc1cccc(F)c1Cl)[C@H]1CCNC1 [Example 9-12, (S)-3-[(R)-1-(2-Chloro-3-fluorophenoxy)-2-isopropoxyethyl]pyrrolidine] | ≤ 10 | ≤ 10 |  |  |  |
| CCOC[C@H](Oc1ccc(Cl)c(Cl)c1)[C@H]1CCNC1 [Example 7-24, (S)-3-[(R)-1-(3,4-Dichlorophenoxy)-2-ethoxyethyl]pyrrolidine] | ≤ 100 | ≤ 10 |  |  |  |
| CCSC[C@H](Oc1ccc(Cl)cc1C(F)(F)F)[C@H]1CCNC1.O=C(O)C(F)(F)F [Example 17-13] |  |  | ≧8.0* | ≧8.0* |  |
| Clc1ccccc1O[C@@H](COCc1ccccc1)[C@H]1CCNC1 [Example 10-1] |  |  | ≧8.0* | ≧7.0* |  |
| Cc1cc(Cl)ccc1O[C@@H](COCc1ccccc1)[C@H]1CCNC1.O=C(O)C(F)(F)F [Prep 3] |  |  | ≧8.0* | ≧8.0* |  |
| CCOC[C@H](Oc1ccc(Cl)c(F)c1)[C@H]1CCNC1 [Example 7-26, (S)-3-[(R)-1-(4-Chloro-3-fluorophenoxy)-2-ethoxyethyl]pyrrolidine] | ≤ 10 | ≤ 10 |  |  |  |
| CCSC[C@H](Oc1cccc(Cl)c1Cl)[C@H]1CCNC1.O=C(O)C(F)(F)F [Example 17-1] |  |  | ≧8.0* | ≧8.0* |  |
| CCOC[C@H](Oc1cccc(Cl)c1C)[C@H]1CCNC1 [Example 7-13, (S)-3-[(R)-1-(3-Chloro-2-methylphenoxy)-2-ethoxyethyl]pyrrolidine] | ≤ 10 | ≤ 10 |  |  |  |
| Cc1c(Cl)cccc1OC(COCc1ccccc1)C1CCNC1 [Example 10-5, ((S)-3-[(R)-2-Benzyloxy-1-(3-chloro-2-methylphenoxy)ethyl]pyrrolidine] | ≤ 10 | ≤ 10 |  |  |  |
| CC(C)OC[C@H](Oc1cccc(Cl)c1Cl)[C@H]1CCNC1 [Example 9-7, (S)-3-[(R)-1-(2,3-Dichlorophenoxy)-2-isopropoxyethyl]pyrrolidine] | ≤ 10 | ≤ 10 |  |  |  |
| CCOC[C@H](Oc1cccc(Cl)c1C(F)(F)F)[C@H]1CCNC1 [Example 7-15, (S)-3-[(R)-1-(3-Chloro-2-trifluoromethylphenoxy)-2-ethoxyethyl]pyrrolidine] | ≤ 10 | ≤ 10 |  |  |  |
| CC(C)SC[C@H](Oc1cccc(Cl)c1C(F)(F)F)[C@H]1CCNC1 [Example 18, (S)-3-[(R)-1-(3-Chloro-2-trifluoromethylphenoxy)-2-isopropylsulfanylethyl]pyrrolidine] | ≤ 10 | ≤ 10 |  |  |  |
| CCSC[C@@H](Oc1cccc(Cl)c1Cl)[C@H]1CCNC1.O=C(O)C(F)(F)F [Example 17-2] |  |  | ≧8.0* | ≧8.0* |  |
| CC(C)OCC(Oc1cccc(Cl)c1C(F)(F)F)C1CCNC1 [Example 9-20, (S)-3-[(R)-1-(3-Chloro-2-trifluoromethyl-phenoxy)-2-isopropoxycthyl]pyrrolidine] | ≤ 10 | ≤ 100 |  |  |  |
| CCOC[C@@H](Oc1ccc(C#N)c(Cl)c1)[C@@H]1CCNC1 (stereo in doubt) [Example 7-25, 2-Chloro-4-((R)-2-ethoxy-1-(S)-pyrrolidin-3-ylethoxy)benzonitrile] |  |  |  |  | IC50 (NET): ≤ 100 nM; IC50 (SERT): ≤ 10 nM |
| CSC[C@@H](Oc1c(C)cc(Cl)cc1Cl)[C@H]1CCNC1.O=C(O)C(F)(F)F [Example 15-13] |  |  | ≧7.0* | ≧8.0* |  |
| CCSC[C@H](Oc1cccc(F)c1Cl)[C@H]1CCNC1.O=C(O)C(F)(F)F [Example 17-3] |  |  | ≧8.0* | ≧8.0* |  |
